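Step 1: Grow cells in 96-well plates. Step 2: Expose to compound for 48 hours at 5 concentrations. Step 3: Interpolate endpoints linearly; if unreached, use highest concentration. TGI is the concentration that stops growth completely.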
Assays:
Assay in all cases: NCI anticancer screen, dose series, 48 h
NCI-H522 lung = test system: NCI-H522 lung
KM12 colon = test system: KM12 colon
SN12C renal = test system: SN12C renal
IGROV1 ovarian = test system: IGROV1 ovarian
A549 NSCLC = test system: A549 NSCLC
BT-549 breast = test system: BT-549 breast
MALME-3M melanoma = test system: MALME-3M melanoma
HCT-116 colon = test system: HCT-116 colon
TK-10 renal = test system: TK-10 renal
OVCAR-4 ovarian = test system: OVCAR-4 ovarian
HL-60(TB) leukemia = test system: HL-60(TB) leukemia
K-562 leukemia = test system: K-562 leukemia
SW-620 colon = test system: SW-620 colon
SK-MEL-2 melanoma = test system: SK-MEL-2 melanoma
OVCAR-8 ovarian = test system: OVCAR-8 ovarian
CCRF-CEM leukemia = test system: CCRF-CEM leukemia
EKVX NSCLC = test system: EKVX NSCLC
DU-145 prostate = test system: DU-145 prostate
UO-31 renal = test system: UO-31 renal
NCI/ADR-RES ovarian = test system: NCI/ADR-RES ovarian

COc1cc(/C=C2\CCC(C)C3C2=NN(C(C)=O)C3c2cc(OC)c(OC)c(OC)c2)cc(OC)c1OC (stereo not drawn)
TGI (NCI-H522 lung): 22.2 µM
TGI (KM12 colon): > 100 µM
TGI (SN12C renal): > 100 µM
TGI (IGROV1 ovarian): 9.7 µM
TGI (A549 NSCLC): > 100 µM
TGI (BT-549 breast): > 100 µM
TGI (MALME-3M melanoma): > 100 µM
TGI (HCT-116 colon): > 100 µM
TGI (TK-10 renal): > 100 µM
TGI (OVCAR-4 ovarian): > 100 µM
TGI (HL-60(TB) leukemia): > 100 µM
TGI (K-562 leukemia): > 100 µM
TGI (SW-620 colon): > 100 µM
TGI (SK-MEL-2 melanoma): > 42.4 µM
TGI (OVCAR-8 ovarian): > 100 µM
TGI (CCRF-CEM leukemia): > 100 µM
TGI (EKVX NSCLC): > 100 µM
TGI (DU-145 prostate): > 100 µM

CCSc1n/c(=C\c2ccco2)c2nnnn12
TGI (NCI-H522 lung): > 100 µM
TGI (KM12 colon): > 100 µM
TGI (SN12C renal): > 100 µM
TGI (IGROV1 ovarian): > 100 µM
TGI (UO-31 renal): > 100 µM
TGI (A549 NSCLC): > 100 µM
TGI (BT-549 breast): > 100 µM
TGI (MALME-3M melanoma): > 100 µM
TGI (HCT-116 colon): > 100 µM
TGI (TK-10 renal): > 100 µM
TGI (OVCAR-4 ovarian): > 100 µM
TGI (SW-620 colon): > 100 µM
TGI (SK-MEL-2 melanoma): > 100 µM
TGI (OVCAR-8 ovarian): > 100 µM
TGI (CCRF-CEM leukemia): > 100 µM
TGI (EKVX NSCLC): > 100 µM
TGI (NCI/ADR-RES ovarian): > 100 µM
TGI (DU-145 prostate): > 100 µM

CCC1(CC)SCc2nc3ccccc3n21
TGI (NCI-H522 lung): 94.4 µM
TGI (KM12 colon): 61.5 µM
TGI (SN12C renal): > 100 µM
TGI (IGROV1 ovarian): > 100 µM
TGI (UO-31 renal): > 100 µM
TGI (A549 NSCLC): > 100 µM
TGI (MALME-3M melanoma): 94.8 µM
TGI (HCT-116 colon): 73.4 µM
TGI (TK-10 renal): > 100 µM
TGI (OVCAR-4 ovarian): > 100 µM
TGI (HL-60(TB) leukemia): 59.5 µM
TGI (K-562 leukemia): 74.5 µM
TGI (SW-620 colon): > 100 µM
TGI (SK-MEL-2 melanoma): 85.3 µM
TGI (OVCAR-8 ovarian): > 100 µM
TGI (CCRF-CEM leukemia): > 100 µM
TGI (EKVX NSCLC): 73.7 µM
TGI (NCI/ADR-RES ovarian): 86 µM
TGI (DU-145 prostate): > 100 µM

C=C1CC(c2ccc(OCCCN3C(=O)c4ccccc4C3=O)c(OC)c2)OC1=O (stereo not drawn)
TGI (NCI-H522 lung): 1.54 µM
TGI (KM12 colon): 28.2 µM
TGI (SN12C renal): 25.4 µM
TGI (IGROV1 ovarian): 8.41 µM
TGI (UO-31 renal): 7.8 µM
TGI (A549 NSCLC): 27 µM
TGI (MALME-3M melanoma): 12.4 µM
TGI (HCT-116 colon): 6.6 µM
TGI (TK-10 renal): 10.8 µM
TGI (HL-60(TB) leukemia): 2.8 µM
TGI (K-562 leukemia): 2.68 µM
TGI (SW-620 colon): 4.75 µM
TGI (SK-MEL-2 melanoma): 18.4 µM
TGI (OVCAR-8 ovarian): 15.1 µM
TGI (CCRF-CEM leukemia): 3.79 µM
TGI (EKVX NSCLC): 30.6 µM
TGI (NCI/ADR-RES ovarian): > 100 µM
TGI (DU-145 prostate): 24.5 µM

CC1=C(C#N)C(C#N)(C#N)C(NN(C)C)C1 (stereo not drawn)
TGI (NCI-H522 lung): 24.8 µM
TGI (KM12 colon): 31.8 µM
TGI (SN12C renal): 27.3 µM
TGI (IGROV1 ovarian): 40.9 µM
TGI (UO-31 renal): 29.3 µM
TGI (A549 NSCLC): > 100 µM
TGI (MALME-3M melanoma): 98.2 µM
TGI (HCT-116 colon): 29.2 µM
TGI (TK-10 renal): 34 µM
TGI (OVCAR-4 ovarian): > 100 µM
TGI (HL-60(TB) leukemia): > 100 µM
TGI (K-562 leukemia): 60.8 µM
TGI (SW-620 colon): > 100 µM
TGI (SK-MEL-2 melanoma): 39.5 µM
TGI (OVCAR-8 ovarian): > 100 µM
TGI (CCRF-CEM leukemia): > 100 µM
TGI (EKVX NSCLC): 86.3 µM
TGI (NCI/ADR-RES ovarian): > 100 µM
TGI (DU-145 prostate): 33.8 µM

COc1ccc(C(=O)Sc2c(-c3ccccc3)c(=O)n(-c3ccccc3)c(=S)n2-c2ccccc2)cc1
TGI (NCI-H522 lung): > 100 µM
TGI (KM12 colon): > 100 µM
TGI (SN12C renal): > 100 µM
TGI (IGROV1 ovarian): 26.4 µM
TGI (A549 NSCLC): > 100 µM
TGI (MALME-3M melanoma): > 100 µM
TGI (HCT-116 colon): > 100 µM
TGI (TK-10 renal): > 100 µM
TGI (OVCAR-4 ovarian): > 100 µM
TGI (HL-60(TB) leukemia): > 100 µM
TGI (K-562 leukemia): > 100 µM
TGI (SW-620 colon): > 100 µM
TGI (OVCAR-8 ovarian): > 100 µM
TGI (CCRF-CEM leukemia): > 100 µM
TGI (EKVX NSCLC): > 100 µM
TGI (NCI/ADR-RES ovarian): > 100 µM
TGI (DU-145 prostate): > 100 µM

CCC(C)(C)/C(CC(O)(C(F)(F)F)C(F)(F)F)=N\O
TGI (NCI-H522 lung): > 100 µM
TGI (KM12 colon): > 100 µM
TGI (SN12C renal): > 100 µM
TGI (IGROV1 ovarian): > 100 µM
TGI (UO-31 renal): > 100 µM
TGI (A549 NSCLC): > 100 µM
TGI (MALME-3M melanoma): > 100 µM
TGI (HCT-116 colon): > 100 µM
TGI (TK-10 renal): > 100 µM
TGI (OVCAR-4 ovarian): > 100 µM
TGI (HL-60(TB) leukemia): > 100 µM
TGI (K-562 leukemia): > 100 µM
TGI (SW-620 colon): > 100 µM
TGI (SK-MEL-2 melanoma): > 100 µM
TGI (CCRF-CEM leukemia): > 100 µM
TGI (EKVX NSCLC): > 100 µM
TGI (NCI/ADR-RES ovarian): > 100 µM
TGI (DU-145 prostate): > 100 µM

O/N=C1/COC(C(F)(F)F)(C(F)(F)F)C1
TGI (NCI-H522 lung): > 100 µM
TGI (KM12 colon): > 100 µM
TGI (SN12C renal): > 100 µM
TGI (IGROV1 ovarian): > 100 µM
TGI (UO-31 renal): > 100 µM
TGI (A549 NSCLC): > 100 µM
TGI (MALME-3M melanoma): > 100 µM
TGI (HCT-116 colon): > 100 µM
TGI (TK-10 renal): > 100 µM
TGI (OVCAR-4 ovarian): > 100 µM
TGI (SW-620 colon): > 100 µM
TGI (SK-MEL-2 melanoma): > 100 µM
TGI (OVCAR-8 ovarian): > 100 µM
TGI (EKVX NSCLC): > 100 µM
TGI (NCI/ADR-RES ovarian): > 100 µM
TGI (DU-145 prostate): > 100 µM

CNC(=S)N(C)C(=S)Nn1c(=O)c(C)nn(C)c1=S
TGI (NCI-H522 lung): > 100 µM
TGI (KM12 colon): > 100 µM
TGI (SN12C renal): > 100 µM
TGI (IGROV1 ovarian): > 100 µM
TGI (A549 NSCLC): > 100 µM
TGI (HCT-116 colon): > 100 µM
TGI (OVCAR-4 ovarian): > 100 µM
TGI (HL-60(TB) leukemia): > 100 µM
TGI (K-562 leukemia): > 100 µM
TGI (SW-620 colon): > 100 µM
TGI (OVCAR-8 ovarian): > 100 µM
TGI (CCRF-CEM leukemia): > 100 µM
TGI (EKVX NSCLC): > 100 µM

Cc1cc2nc3c(C#N)c(-c4ccccc4)cc(Nc4ccc(Cl)cc4)n3c2cc1C
TGI (NCI-H522 lung): > 100 µM
TGI (KM12 colon): > 100 µM
TGI (SN12C renal): > 100 µM
TGI (UO-31 renal): > 100 µM
TGI (A549 NSCLC): > 100 µM
TGI (BT-549 breast): > 100 µM
TGI (MALME-3M melanoma): > 100 µM
TGI (HCT-116 colon): > 100 µM
TGI (TK-10 renal): > 100 µM
TGI (OVCAR-4 ovarian): > 100 µM
TGI (SW-620 colon): > 100 µM
TGI (SK-MEL-2 melanoma): > 100 µM
TGI (OVCAR-8 ovarian): > 100 µM
TGI (CCRF-CEM leukemia): > 100 µM
TGI (EKVX NSCLC): > 100 µM
TGI (NCI/ADR-RES ovarian): > 100 µM

N#C/C(C(=O)Nc1ccccc1)=C(/N)N1CCOCC1
TGI (KM12 colon): > 100 µM
TGI (SN12C renal): > 100 µM
TGI (IGROV1 ovarian): > 100 µM
TGI (UO-31 renal): > 100 µM
TGI (A549 NSCLC): > 100 µM
TGI (BT-549 breast): > 100 µM
TGI (HCT-116 colon): > 100 µM
TGI (K-562 leukemia): > 100 µM
TGI (SW-620 colon): > 100 µM
TGI (SK-MEL-2 melanoma): > 100 µM
TGI (OVCAR-8 ovarian): > 100 µM
TGI (CCRF-CEM leukemia): > 100 µM
TGI (EKVX NSCLC): > 100 µM
TGI (NCI/ADR-RES ovarian): > 100 µM
TGI (DU-145 prostate): > 100 µM

Cc1ccc(S(=O)(=O)N/N=C/C(=C/c2ccc(Cl)cc2)CC(/C=N/NS(=O)(=O)c2ccc(C)cc2)=C\c2ccc(Cl)cc2)cc1
TGI (NCI-H522 lung): 16.1 µM
TGI (KM12 colon): 47.2 µM
TGI (SN12C renal): 35 µM
TGI (IGROV1 ovarian): 35.7 µM
TGI (UO-31 renal): 18.7 µM
TGI (A549 NSCLC): > 100 µM
TGI (MALME-3M melanoma): 22 µM
TGI (HCT-116 colon): 18.9 µM
TGI (TK-10 renal): 45.6 µM
TGI (OVCAR-4 ovarian): 24.8 µM
TGI (HL-60(TB) leukemia): 8.15 µM
TGI (K-562 leukemia): 8.19 µM
TGI (SW-620 colon): 27.6 µM
TGI (SK-MEL-2 melanoma): 24.9 µM
TGI (OVCAR-8 ovarian): 12.8 µM
TGI (CCRF-CEM leukemia): 8.8 µM
TGI (EKVX NSCLC): 38.4 µM
TGI (NCI/ADR-RES ovarian): 94.3 µM
TGI (DU-145 prostate): > 100 µM

CC(=O)NC1C(OCc2ccccc2)OC(CO)C(O)C1OC(C)C(=O)NC(C)C(=O)NC(CCC(=O)NCCCNc1c2ccccc2nc2cccc([N+](=O)[O-])c12)C(N)=O (stereo not drawn)
TGI (NCI-H522 lung): 4.05 µM
TGI (KM12 colon): 23.5 µM
TGI (SN12C renal): 11 µM
TGI (IGROV1 ovarian): 72.9 µM
TGI (UO-31 renal): 8.3 µM
TGI (A549 NSCLC): 11.6 µM
TGI (MALME-3M melanoma): 7.61 µM
TGI (HCT-116 colon): 2.38 µM
TGI (TK-10 renal): 9.97 µM
TGI (OVCAR-4 ovarian): > 100 µM
TGI (HL-60(TB) leukemia): > 100 µM
TGI (K-562 leukemia): 11.1 µM
TGI (SW-620 colon): 11.6 µM
TGI (OVCAR-8 ovarian): 9.07 µM
TGI (CCRF-CEM leukemia): > 100 µM
TGI (EKVX NSCLC): 22.6 µM
TGI (NCI/ADR-RES ovarian): 65.7 µM

From PubChem BioAssay (NCI)
